Data from US4421760A, “β-Lactam antibiotic, its preparation and use” (Beecham Group Limited, priority 1980, dated 1983).
In brackets after ≈: the same amount, converted by molar mass. Read-outs that look alike come from different tables or passages of the source.

Experiments:
[1] = system: Salmonella typhimurium CT10; assay: Antibacterial activity, microtitre method; assay type: cell-based; details: Salmonella enterica
Source text: (§1) The antibacterial activity of the preparation of MM 27696 described in the example has been determined by the microtitre method and is reported in The Table.
(§2) Antibacterial Activity of MM 27696 sodium salt determined
(§3) by the Microtitre Method

Bacillus subtilis A = assay: Antibacterial activity, microtitre method; assay type: cell-based
Source text: as §1, §2, §3

Serratia marcescens US20 = assay: Antibacterial activity, microtitre method; assay type: cell-based
Source text: as §1, §2, §3

Enterobacter cloacae N1 = assay: Antibacterial activity, microtitre method; assay type: cell-based
Source text: as §1, §2, §3

Shigella sonnei MB 11967 = assay: Antibacterial activity, microtitre method; assay type: cell-based; details: MB11967
Source text: as §1, §2, §3

Pseudomonas aeruginosa A = assay: Antibacterial activity, microtitre method; assay type: cell-based
Source text: as §1, §2, §3

Escherichia coli JT 39 = assay: Antibacterial activity, microtitre method; assay type: cell-based; details: JT39
Source text: as §1, §2, §3

Proteus vulgaris W091 = assay: Antibacterial activity, microtitre method; assay type: cell-based
Source text: as §1, §2, §3

Klebsiella aerogenes A = assay: Antibacterial activity, microtitre method; assay type: cell-based
Source text: as §1, §2, §3

Escherichia coli 0111 = assay: Antibacterial activity, microtitre method; assay type: cell-based
Source text: as §1, §2, §3

Streptococcus faecalis I = assay: Antibacterial activity, microtitre method; assay type: cell-based; details: Enterococcus faecalis
Source text: as §1, §2, §3

[2] = system: Staphylococcus aureus Russell; assay: Antibacterial activity, microtitre method; assay type: cell-based
Source text: as §1, §2, §3

[3] = system: Streptococcus pyogenes CN10; assay: Antibacterial activity, microtitre method; assay type: cell-based
Source text: as §1, §2, §3

[4] = system: Streptococcus pneumoniae CN33; assay: Antibacterial activity, microtitre method; assay type: cell-based
Source text: as §1, §2, §3

E. coli ESS = assay: Antibacterial activity, microtitre method; assay type: cell-based; details: Escherichia coli
Source text: as §1, §2, §3

[5] = system: Staphylococcus aureus Oxford; assay: Antibacterial activity, microtitre method; assay type: cell-based
Source text: as §1, §2, §3

Citrobacter freundii E8 = assay: Antibacterial activity, microtitre method; assay type: cell-based
Source text: as §1, §2, §3

Proteus morganii I580 = assay: Antibacterial activity, microtitre method; assay type: cell-based; details: Morganella morganii
Source text: as §1, §2, §3

Proteus mirabilis C977 = assay: Antibacterial activity, microtitre method; assay type: cell-based
Source text: as §1, §2, §3

[6] = system: Staphylococcus aureus 1517; assay: Antibacterial activity, microtitre method; assay type: cell-based
Source text: as §1, §2, §3

Proteus rettgeri WM16 = assay: Antibacterial activity, microtitre method; assay type: cell-based; details: Providencia rettgeri
Source text: as §1, §2, §3

[7] = target: Enterobacter cloacae P99 β-Lactamase (Enterobacter cloacae, UniProt P05364); assay: β-Lactamase inhibitory activity; assay type: biochemical; details: read-out: β-Lactamase Inhibitory Activity I50 (converted)
Experimental: (§4) β-Lactamase Inhibitory Activity of MM 27696 sodium salt
(§5) b = without preincubation

[8] = target: Klebsiella aerogenes E70 β-Lactamase; assay: β-Lactamase inhibitory activity; assay type: biochemical
Experimental: as §4, §5

E. coli JT4 β-Lactamase = E. coli JT4 β-Lactamase (Escherichia coli, UniProt P62593); assay: β-Lactamase inhibitory activity; assay type: biochemical; details: read-out: β-Lactamase Inhibitory Activity I50 (converted)
Experimental: as §4, §5

[9] = target: S. aureus Russell β-Lactamase (Staphylococcus aureus, UniProt P00807); assay: β-Lactamase inhibitory activity; assay type: biochemical; details: read-out: β-Lactamase Inhibitory Activity I50 (converted)
Experimental: as §4, §5

Chain of E. coli JT4 β-Lactamase (P62593 24-286 limits assumed): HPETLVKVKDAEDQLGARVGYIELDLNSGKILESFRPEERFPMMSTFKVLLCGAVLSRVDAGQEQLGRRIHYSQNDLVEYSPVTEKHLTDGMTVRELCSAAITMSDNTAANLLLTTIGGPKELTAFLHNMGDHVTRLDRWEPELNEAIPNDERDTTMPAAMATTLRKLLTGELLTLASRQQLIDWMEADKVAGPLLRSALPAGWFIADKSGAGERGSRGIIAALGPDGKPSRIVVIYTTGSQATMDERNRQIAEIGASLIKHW
Chain of S. aureus Russell β-Lactamase (P00807 25-281): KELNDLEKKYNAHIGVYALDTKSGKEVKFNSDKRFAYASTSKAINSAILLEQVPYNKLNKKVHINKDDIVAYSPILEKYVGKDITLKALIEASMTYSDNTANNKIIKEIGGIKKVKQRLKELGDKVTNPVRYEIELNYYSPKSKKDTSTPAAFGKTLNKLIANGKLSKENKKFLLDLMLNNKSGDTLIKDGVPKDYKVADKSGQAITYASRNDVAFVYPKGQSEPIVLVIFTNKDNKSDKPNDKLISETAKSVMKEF
Chain of Enterobacter cloacae P99 β-Lactamase (P05364 21-381): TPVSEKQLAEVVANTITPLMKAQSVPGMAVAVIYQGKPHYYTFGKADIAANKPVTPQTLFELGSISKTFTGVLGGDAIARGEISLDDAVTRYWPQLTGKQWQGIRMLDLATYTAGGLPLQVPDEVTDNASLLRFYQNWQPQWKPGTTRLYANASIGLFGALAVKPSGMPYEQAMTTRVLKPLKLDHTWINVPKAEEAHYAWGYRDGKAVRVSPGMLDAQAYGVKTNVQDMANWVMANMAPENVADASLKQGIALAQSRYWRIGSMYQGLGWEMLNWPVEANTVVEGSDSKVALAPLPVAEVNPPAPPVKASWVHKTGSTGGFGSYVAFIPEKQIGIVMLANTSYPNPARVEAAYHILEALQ

For `CCC(=O)N/C=C/SC1=C(C(=O)O)N2C(=O)[C@@H]([C@H](C)OS(=O)(=O)O)[C@H]2C1` [MM 27696], the MIC [1] was 0.2 µg/mL (≈ 0.492 µM), the MIC (Bacillus subtilis A) was < 0.1 µg/mL and the MIC (Serratia marcescens US20) was 6.2 µg/mL (≈ 15.3 µM). The MIC (Enterobacter cloacae N1) was 0.2 µg/mL (≈ 0.492 µM), the MIC (Shigella sonnei MB 11967) was < 0.1 µg/mL and the MIC (Pseudomonas aeruginosa A) was 50 µg/mL (≈ 123 µM). For the same compound, the MIC (Escherichia coli JT 39) was 0.2 µg/mL (≈ 0.492 µM), the MIC (Proteus vulgaris W091) was 0.4 µg/mL (≈ 0.984 µM) and the MIC (Klebsiella aerogenes A) was 0.4 µg/mL (≈ 0.984 µM). The MIC (Escherichia coli 0111) was 0.8 µg/mL (≈ 1.97 µM), the MIC (Streptococcus faecalis I) was 12.5 µg/mL (≈ 30.8 µM) and the MIC [2] was 0.8 µg/mL (≈ 1.97 µM). The MIC [3] was < 0.1 µg/mL, the MIC [4] was < 0.1 µg/mL and the MIC (E. coli ESS) was < 0.1 µg/mL. It also gave an MIC [5] of 0.4 µg/mL (≈ 0.984 µM), an MIC (Citrobacter freundii E8) of 3.1 µg/mL (≈ 7.63 µM) and an MIC (Proteus morganii I580) of 0.2 µg/mL (≈ 0.492 µM). For the same compound, the MIC (Proteus mirabilis C977) was < 0.1 µg/mL, the MIC [6] was 100 µg/mL (≈ 246 µM) and the MIC (Proteus rettgeri WM16) was 0.4 µg/mL (≈ 0.984 µM). For the same compound, the IC50 ([7]; a = with preincubation) was 4.92 nM, the IC50 ([7]; b = without preincubation) was 615 nM and the “β-Lactamase Inhibitory Activity I50” value ([8]; a = with preincubation) was 0.003 µg/mL. The “β-Lactamase Inhibitory Activity I50” value ([8]; b = without preincubation) was 0.4 µg/mL, the IC50 (E. coli JT4 β-Lactamase; a = with preincubation) was 24.6 nM and the IC50 (E. coli JT4 β-Lactamase; b = without preincubation) was 984 nM. The IC50 ([9]; a = with preincubation) was 73.8 nM and the IC50 ([9]; b = without preincubation) was > 123000 nM.
